Experimental data taken from patent publication US20250034151A1, “WEE1 INHIBITOR, PREPARATION THEREFOR, AND USE THEREOF” (JIANGSU TASLY DIYI PHARMACEUTICAL CO., LTD., priority 2022, published 2025).
pIC50: −log10 of the molar value. One block for each molecule: values may come before it.

Experiments:
CYP2B6 = biological target: T1, CYP2B6 (Homo sapiens, UniProt P20813); test: CYP450 isoform enzymatic inhibition, 2B6; assay type: in vitro ADME; conditions: pH 7.4, read-out: CYP inhibiton/% 2B6
T1 sequence (P20813 1-491): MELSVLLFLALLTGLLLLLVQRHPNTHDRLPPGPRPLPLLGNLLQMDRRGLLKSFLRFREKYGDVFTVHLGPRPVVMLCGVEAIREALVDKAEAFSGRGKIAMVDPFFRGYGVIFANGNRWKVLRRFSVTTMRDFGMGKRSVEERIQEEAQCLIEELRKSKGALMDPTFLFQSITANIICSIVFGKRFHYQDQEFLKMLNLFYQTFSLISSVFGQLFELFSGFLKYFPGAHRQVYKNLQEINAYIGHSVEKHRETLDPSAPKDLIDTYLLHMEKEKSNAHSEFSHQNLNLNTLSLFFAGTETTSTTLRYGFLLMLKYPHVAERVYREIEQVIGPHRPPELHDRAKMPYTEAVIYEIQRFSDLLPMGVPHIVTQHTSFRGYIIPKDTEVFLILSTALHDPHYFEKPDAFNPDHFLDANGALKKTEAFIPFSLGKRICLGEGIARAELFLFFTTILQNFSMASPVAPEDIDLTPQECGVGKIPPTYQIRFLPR
Protocol: Enzymatic experiments were performed to quantify the inhibition of CYP450 enzyme activity of each isoform of CYP450 by small molecule inhibitors through fluorescence generated by the oxidation of the The substrate by cytochrome P450. […] The Solution B composition used for the experiment was: 40 U/mL G6PDH (Sigma-aldrich, Cat #G6378). The The substrate mix was 0.05×Solution A, 0.01×Solution B, 50 mM Potassium Phosphate, 0.01 mM BOMCC/0.01 mM EOMCC/0.001 mM DBOMF.

[1] = Plasma protein binding (PPB), equilibrium dialysis; assay type: in vitro ADME; conditions: mouse plasma, 5 h dialysis
Source text: 1. Experimental Procedure
2. Data Processing and Parameter Calculation

MIA PaCa2 cells = test: Anti-proliferative effect on MIA PaCa2 cells by Cell Titer-Glo; assay type: cell-based; conditions: Homo sapiens, MIA PaCa-2, 72 h, 3 days, read-out: MIA PaCa 2 (IC50, inhibition of proliferation in vitro)
Procedure, shortened: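 Cells exposed to graded compound concentrations for 3 days at 37° C, 5% CO2, final DMSO 0.2%; viability read by CellTiter-Glo luminescence. Inhibition normalised to untreated cells (max) and medium (min); IC50 fitted by variable-slope log(inhibitor)-response model.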

[2] = Pharmacokinetics on single dose in mice (intravenous and oral); assay type: in vivo, ICR mice; conditions: male, ICR, mouse, plasma, Oral, 10 mg/kg
Protocol: 1. Experimental Aim: The present experiment aimed to obtain the pharmacokinetic profile of the subject compounds in ICR mice (both intravenous and oral) 3.1.2 Test System Species: SPF grade male ICR mice Body weight/weekly age: about 30 g 4. […] 4.2 Subjects Given (Route) Intravenous: 1 mg/kg in a volume of 5 mL/kg Gavage: 10 mg/kg in a volume of 10 mL/kg Ultrasound for 5 min before administration 4.3 Subject Preparation (Concentration) Intravenous: 0.2 mg/mL Gavage: 1 mg/mL Fast overnight before administration and feed four hours after administration. […] The blood samples were stored in a refrigerator at or below −20° C. for LC-MS/MS analysis. […] LC-MS/MS Analytical Detection Used 5. Data Processing The samples were detected for drug concentration at each time point by LC-MS/MS. Pharmacokinetic parameters terminal elimination half-life (t1/2), area under the curve (AUC), apparent volume of distribution (Vd), clearance (CL), mean residence time (MRT), and Cmax were calculated using the non-compartmental model of Phoenix WinNonlin 5.2. Bioavailability (F %) was directly from serum concentration results. Mean±standard deviation (X±SD) was used for blood concentration and pharmacokinetic parameters, etc. Specific testing and analytical methods were specified in the form of protocol revisions.

H1299 cells = test: Anti-proliferative effect on H1299 cells by Cell Titer-Glo; assay type: cell-based; conditions: Homo sapiens, NCI-H1299, 72 h, 3 days, read-out: H1299 (IC50, inhibition of proliferation in vitro)
Procedure, shortened: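 H1299 cells exposed to compound dilutions for 3 days at 37 °C, 5% CO2, final DMSO 0.2%. Viability read by CellTiter-Glo luminescence, normalised to untreated-cell (max) and medium (min) controls. IC50 from a variable-slope log(inhibitor) vs. response fit.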

Wee1 protein = biological target: T2, Wee1 protein (Homo sapiens, UniProt P30291); test: Binding of compound to Wee1 protein and Tracer 178 by TR-FRET (Wee1 kinase inhibitory activity); conditions: 15 nM WEE1, 50 nM Tracer 178, read-out: IC50 (inhibitory activity against Wee1 kinase)
T2 construct: purchased Thermo Fisher PR7373A
T2 sequence (P30291 whole entry): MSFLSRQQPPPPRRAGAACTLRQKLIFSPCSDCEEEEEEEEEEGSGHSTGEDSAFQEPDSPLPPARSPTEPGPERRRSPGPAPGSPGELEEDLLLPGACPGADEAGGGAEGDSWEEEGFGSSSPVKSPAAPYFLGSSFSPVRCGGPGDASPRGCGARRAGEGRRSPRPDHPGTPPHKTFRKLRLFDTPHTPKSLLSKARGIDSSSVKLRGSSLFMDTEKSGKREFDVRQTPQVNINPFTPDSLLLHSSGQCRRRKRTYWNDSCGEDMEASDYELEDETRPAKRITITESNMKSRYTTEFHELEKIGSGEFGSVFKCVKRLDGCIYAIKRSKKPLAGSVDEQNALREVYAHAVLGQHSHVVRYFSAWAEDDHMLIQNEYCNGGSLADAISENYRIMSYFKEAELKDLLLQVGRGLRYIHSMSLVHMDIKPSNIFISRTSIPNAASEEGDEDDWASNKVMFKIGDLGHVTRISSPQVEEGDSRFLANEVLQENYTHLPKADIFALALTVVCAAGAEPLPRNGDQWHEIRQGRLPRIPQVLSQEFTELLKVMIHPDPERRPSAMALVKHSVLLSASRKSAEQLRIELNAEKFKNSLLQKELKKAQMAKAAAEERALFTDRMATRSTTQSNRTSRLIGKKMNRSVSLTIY

[3] = Liver microsomes in vitro stability (human); assay type: in vitro ADME; conditions: read-out: T1/2/min (H)
Protocol: (§1) 1. Preparation of Working Solution:
(§2) Microsomes were taken out from the −80° C. refrigerator, rapidly melted in a 37° C. water bath and placed on ice until ready to use. The test article was diluted with DMSO to prepare a 10 mM stock solution, and then diluted with acetonitrile to a 0.5 mM secondary stock solution. […] NADPH was diluted with Buffer C to a working solution of 6 mM for the starter solution. An acetonitrile solution containing an internal standard was prepared as the precipitant, and Verapamil-HCl was chosen as the internal standard at a concentration of 4 ng/ml.
(§3) 2. Experimental Procedure:
(§4) A round-bottom well plate was taken, noted as the reaction plate, and the prepared working solution for each compound was dispensed into the well plate according to the number of replicates and time points (0 h samples were also added to the reaction plate), 30 μL/well; the plate was incubated at 37° C. for 10 min. A separate plate with pointed bottom wells, noted as a precipitation plate, was added with 135 μL precipitant per well; 0 h samples were transferred to the plate after 10 min incubation and 15 μL of starter solution was added; the plate was placed on ice before centrifugation.
(§5) The diluted starter solution was added in sufficient quantity to the dispensing plate to facilitate the multichannel pipette aspiration operation.
(§6) The reaction was carried out on a warm incubation shaker and 15 μL of starter solution/sample is added to the plate using a multichannel pipette. The reaction was mixed with a slight shake to initiate the reaction, which was accurately timed and recorded using a timer. In general, samples with shorter reaction times are initiated late and vice versa early, allowing sufficient time for multiple plate manipulation to terminate the reaction. For example, as for the four experiments of 5, 15, 30, and 60 min, the 60 min experiment was started first, and the 5 min experiment was started later, so as to leave sufficient time for the 5 min group.
(§7) After the reaction time had elapsed, all the solution in the plate was aspirated using the multichannel pipette and added to the precipitation plate to terminate the reaction at that point in time. After all reactions had been terminated, the plates were shaken for ten minutes on a plate shaker at 600 rpm to precipitate the protein. The plate was centrifuged at 4° C. for 15 minutes at maximum rpm. 80 μL of supernatant was taken, 320 μL of pure water was added and mixed for LC-MS analysis.

[4] = Liver microsomes in vitro stability (mouse); assay type: in vitro ADME; conditions: read-out: T1/2/min
Protocol: as §1, §2, §3, §4, §5, §6, §7

inhibition at 30 min, 10 µM (CYP2B6): 1.38%
Compound: C=CCn1c(=O)c2cnc(Nc3ccc(N4C[C@@H]5C[C@H]4CN5C)cc3)nc2n1-c1cccc(C(C)(C)O)n1 [Compound 3]

Compound: C=CCn1c(=O)c2cnc(Nc3ccc(N4CC5CC(C4)N5C)cc3)nc2n1-c1ccc2ccn(CC)c2n1 [Compound 51]
fraction unbound at 5 h, 1 µM [1]: 0.03 | pIC50 (MIA PaCa2 cells): 6.00 to 7.00 | AUC(0-t) [2]: 430 ng·h/mL | Cmax [2]: 290 ng/mL | MRT [2]: 70.8 min | half-life [2]: 57 min | pIC50 (H1299 cells): 6.00 to 7.00 | pIC50 (Wee1 protein): > 8.30 | half-life at 1 µM [3]: 19 min | half-life at 1 µM [4]: 14.7 min
